Experimental data: patent publication US20130217735A1, “FUNGICIDAL COMPOSITIONS AND METHODS OF USE” (Agri-Food and BioSciences Institute, priority 2010, published 2013)
Where two headings read alike, the source gives them in different places.

Assays:
P. erythroseptica [1] = assay: Example 8 sensitivity testing of potato tuber pathogens to imazalil derivatives (EC50); format: cell-based, Phytophthora erythroseptica; details: for EC50: Trial B, read-out: EC50 (concentration required to reduce mycelial growth by 50%)
Procedure: (§1) For tests with imazalil sulphate and imazalilium docusate prepared according to Trial B, imazalil sulphate (0.5 g, drug pure, Janssen) was dissolved in sterile water (100 ml) to give a stock solution (12.7 mM). […] Dilutions (alternately five-fold and two-fold) of each of these stock solutions were prepared (in water for imazalil sulphate and in ethanol for imazalilium docusate) to produce a dilution series (12.7, 2.54, 1.27, 0.25, and 0.13 mM).
(§2) Log-probability plots of the percentage reduction in growth against the concentration were used to estimate EC50 values (the concentration required to reduce mycelial growth by 50%) (see Table 6).

F. coeruleum [2] = assay: as above; format: cell-based; details: isolate F. coeruleum ex B7/06 T8; Trial B; read-out: EC50 (concentration required to reduce mycelial growth by 50%)
Procedure: as §1, §2

F. culmorum [3] = assay: as above; format: cell-based; details: isolate F. culmorum P13, Trial B, read-out: EC50 (concentration required to reduce mycelial growth by 50%)
Procedure: as §1, §2

Phoma exigua [4] = assay: as above; format: cell-based; details: isolate Phoma exigua 9.1; Trial B; read-out: EC50 (concentration required to reduce mycelial growth by 50%)
Procedure: as §1, §2

F. sambucinum [5] = assay: as above; format: cell-based; details: Trial B, read-out: EC50 (concentration required to reduce mycelial growth by 50%)
Procedure: as §1, §2

Phoma foveata [6] = assay: as above; format: cell-based; details: isolate Phoma foveata BL2/5 T3, Trial B, read-out: EC50 (concentration required to reduce mycelial growth by 50%)
Procedure: as §1, §2

[7] = Thermogravimetric analysis (thermal stability); format: physicochemical; details: TGA under nitrogen, 5° C./min
Procedure: Thermogravimetric analysis was performed on a Mettler Toledo Star^e TGA/DSC (Leicester, UK) under nitrogen. Samples between 5 and 10 mg were placed in open alumina pans and were heated from 25° C. to 600° C. with a heating rate of 5° C./min. Decomposition temperatures (T5% dec) were reported from onset to 5 wt % mass loss Infrared spectra were recorded as neat samples from 4000-450 cm^−1 on a Perkin-Elmer Spectrum 65 FT-IR spectrometer fitted with a Universal ATR Sampling Accessory. Differential scanning calorimetry (DSC) was performed on a Mettler Toledo Star^e DSC (Leicester, UK) under nitrogen. Samples between 5 and 10 mg were heated from 25° C. to 110° C. at a heating rate of 5° C./min followed by a 5 min isotherm. A cooling rate of 5° C./min to −70° C. was followed by a 5 min isotherm at −70° C., and the cycle was repeated twice. A melting transition was observed as single-event peak in the first run. […] Transitions above ambient temperature were confirmed optically on a Stuart SMP3 melting point apparatus.

[8] = test system: Phytophthora erythroseptica; assay: Example 7 sensitivity testing of potato tuber pathogens to thiabendazole derivatives; format: cell-based; details: for Inhibition (%) of mycelial growth: Trial B
Procedure: (§3) In vitro tests of the IL thiabendazolium docusate were performed in comparison to the neutral fungicide using selected isolates of Fusarium spp., the cause of potato dry rot. F. coeruleum and F. culmorum are sensitive to thiabendazole whereas isolates of F. sambucinum are frequently resistant. Isolates of Phoma spp., the cause of gangrene, and Phytophthora erythroseptica, the cause of pink rot, were also tested. All except F. sambucinum ex SASA were isolated in a laboratory. F. sambucinum ex SASA was supplied by SASA (Science and Advice for Scottish Agriculture, Roddinglaw Road, Edinburgh, EH12 9F, UK).
(§4) In each test three replicate plates for each organism per concentration were used and tests were repeated at least once.

P. exigua = assay: Example 5 agar plate mycelial growth test of TBZ derivatives; details: isolate P. exigua 9.1, Trial A
F. culmorum [9] = assay: as above; format: cell-based; details: isolate F. culmorum P13, Trial A
F. sulphureum = assay: as above; details: isolate F. sulphureum ex SASA, 5-7 days, TBZ docusate Trial A
Procedure: (§5) Both TBZ docusate and TBZ stearate were tested at final concentrations of 250 μm and 25 μm in agar. To prepare the TBZ docusate stock solution for 250 μm, 0.155 g of TBZ docusate prepared according to Trial A was added to a 10 mL volumetric flask and was dissolved in 10 mL of ethanol. The solution was mixed thoroughly. To prepare the TBZ docusate stock solution for 25 μm, 1 ml of the above stock solution was pipetted into a second 10 mL flask and 10 mL ethanol was added. The solution was mixed thoroughly. To prepare the TBZ stearate stock solution for 250 μm, 0.121 g of TBZ stearate was added to a 10 mL volumetric flask and was dissolved in 10 mL ethanol. The solution was mixed thoroughly. To prepare the TBZ stearate stock solution for 25 μm, 1 mL of the 250 μm TBZ stearate stock solution was pipetted into a second 10 mL flask and 10 mL ethanol was added. The solution was mixed thoroughly.
(§6) The agar was prepared and autoclaved. Potato dextrose agar (PDA) was used for the Fusarium species and Phytophthora erythroseptica and malt agar was used for the Phoma species. The agar was allowed to cool to 50° C. Each of the stock solutions was added to the agar at the rate of 10 mL stock solution per liter of agar to give the two final concentrations, for both TBZ stearate and docusate, in agar. Also prepared were a 1% ethanol control (10 mL per liter of agar) and an untreated agar as a second control. The plates were prepared in triplicate for each concentration.
(§7) For each pathogen isolate tested, 3 plates of 250 μm/1, 3 plates of 25 μm/1, 3 plates of 1% ethanol, and 3 plates of untreated agar were inoculated using an agar plug cut with a no. 3 cork borer from the margin of an actively-growing culture on agar. The plates were incubated at an appropriate temperature (usually 18-20° C.) in darkness. The growth rate was monitored and assessed after 5-7 days. The growth was assessed by measuring colony diameters minus plug (two measurements at right-angles) per plate. The percent reduction was calculated with respect to the control.
(§8) Pure thiabendazole (TBZ; 0.5 g) obtained from MSD Agvet (Rahway, N.J.) was dissolved in water (10 mL) by adding the minimum required volume (c. 0.5 mL) of hypophosphorous acid and heating gently with stirring, then made up to 100 mL with water to give a stock solution (25 mM). TBZ docusate (0.155 g) or TBZ stearate (0.121 g) was dissolved in ethanol (100 ml) to give stock solutions (25 mM). A ten-fold dilution of each of these stock solutions was prepared (in water for TBZ and in ethanol for TBZ docusate and stearate). […] In addition, agar with 1% v/v ethanol and unamended agar was prepared (ethanol and unamended controls). The agar was poured into Petri plates (9 cm) and allowed to set.
(§9) Isolates of the appropriate potato tuber pathogens were grown on PDA for Fusarium spp. and Phytophthora erythroseptica or on MA for Phoma spp. Each isolate to be tested was inoculated onto three replicate plates of the two concentrations of each compound and onto ethanol and unamended agar controls using plugs (6 mm diameter) cut from the margins of actively growing cultures. Plates were incubated in darkness at 20° C. and mycelial growth measured (two measurements at right-angles for each plate) after 5-7 days (depending on the growth rates).

P. erythroseptica [10] = assay: as above; details: isolate P. erythroseptica BL2/08 P31, Trial A
Procedure: as §5, §6, §7, §8, §9

F. coeruleum [11] = assay: as above; details: isolate F. coeruleum ex B7/06 T8, Trial A
Procedure: as §5, §6, §7, §8, §9

P. foveata = assay: as above; details: isolate P. foveata BL2 05 T3, Trial A
Procedure: as §5, §6, §7, §8, §9

F. coeruleum [12] = assay: Example 7 sensitivity testing of potato tuber pathogens to thiabendazole derivatives; format: cell-based; details: Trial B
Procedure: as §3, §4

F. culmorum [13] = assay: as above; format: cell-based; details: isolate F. culmorum P13, Trial B
Procedure: as §3, §4

Phoma exigua [14] = assay: as above; format: cell-based; details: isolate Phoma exigua 9.1, Trial B
Procedure: as §3, §4

F. sambucinum [15] = assay: as above; format: cell-based; details: Trial B
Procedure: as §3, §4

Phoma foveata [16] = assay: as above; format: cell-based; details: isolate Phoma foveata BL2 05 T3, Trial B
Procedure: as §3, §4

[17] = isolate P. erythroseptica BL2/08 P31

Compound: C=CCOC(Cn1ccnc1)c1ccc(Cl)cc1Cl (centres unmarked) [Imazalil, imazalil, reference compound]
- EC50 (P. erythroseptica [1]; Phytophthora erythroseptica, isolate P. erythroseptica Rooster Eire): > 127 µM
- EC50 (P. erythroseptica [1]; [17]): > 127 µM
- EC50 (F. coeruleum [2]): 12.9 µM
- EC50 (F. culmorum [3]; Fusarium culmorum): 0.4 µM
- EC50 (Phoma exigua [4]): 5.6 µM
- EC50 (F. sambucinum [5]; Fusarium sambucinum, isolate F. sambucinum L'gall 11): 1.8 µM
- EC50 (F. sambucinum [5]; Fusarium sambucinum, isolate F. sambucinum ex SASA, log-probability plot): 0.7 µM
- EC50 (Phoma foveata [6]; Boeremia foveata): 2.7 µM

Compound: C=CCOC(Cn1ccnc1)c1ccc(Cl)cc1Cl (centres unmarked) [Imazalilium docusate, imazalilium docusate]
- activity against P. erythroseptica (P. erythroseptica [1]; in words, Table 6): showed some activity
- EC50 (P. erythroseptica [1]; [17]): 38.4 µM
- EC50 (P. erythroseptica [1]; isolate P. erythroseptica Rooster Eire): 100 µM
- T5% onset (decomposition temperature, onset to 5 wt % mass loss) [7]: 208.8 °C
- EC50 (F. coeruleum [2]): 19.2 µM
- EC50 (F. culmorum [3]): 0.4 µM
- EC50 (Phoma exigua [4]): 7.3 µM
- EC50 (F. sambucinum [5]; isolate F. sambucinum L'gall 11): 2.6 µM
- EC50 (F. sambucinum [5]; isolate F. sambucinum ex SASA, log-probability plot): 1 µM
- EC50 (Phoma foveata [6]): 4.6 µM

Compound: c1ccc2[nH]c(-c3cscn3)nc2c1 [TBZ docusate, thiabendazolium docusate]
- T5% onset (decomposition temperature, onset to 5 wt % mass loss) [7]: 252.0 °C
- activity against P. erythroseptica compared with thiabendazole alone ([8]; in words, Table 5): more active

Compound: CCn1cc[n+](C)c1.CCn1cc[n+](C)c1.S=C([S-])NCCNC(=S)[S-] [[C2mim]2ebdtc, di(1-ethyl-3-methylimidazolium)ethylenbis-(dithiocarbamate)]
- T5% onset (decomposition temperature, onset to 5 wt % mass loss) [7]: 147.1

Compound: thiabendazolium docusate [TBZ docusate]
- Inhibition (%) of mycelial growth (P. exigua; 25 μM in agar): 90%
- Inhibition (%) of mycelial growth (P. exigua; 250 μM in agar): 98%
- Inhibition (%) of mycelial growth (F. culmorum [9]; 25 μM in agar): 100%
- Inhibition (%) of mycelial growth (F. culmorum [9]; 250 μM in agar): 100%
- Inhibition (%) of mycelial growth (F. sulphureum; 25 μM in agar): 27%
- Inhibition (%) of mycelial growth (F. sulphureum; 250 μM in agar): 97%
- Inhibition (%) of mycelial growth (P. erythroseptica [10]; 25 μM in agar): 62%
- Inhibition (%) of mycelial growth (P. erythroseptica [10]; 250 μM in agar): 100%
- Inhibition (%) of mycelial growth (F. coeruleum [11]; 25 μM in agar): 98%
- Inhibition (%) of mycelial growth (F. coeruleum [11]; 250 μM in agar): 98%
- Inhibition (%) of mycelial growth (P. foveata; 25 μM in agar): 95%
- Inhibition (%) of mycelial growth (P. foveata; 250 μM in agar): 99%
- Inhibition (%) of mycelial growth ([8]; isolate Phytophthora erythroseptica BL2/08 P31, 25 μM in agar): 33%
- Inhibition (%) of mycelial growth ([8]; isolate Phytophthora erythroseptica BL2/08 P31, 250 μM in agar): 97%
- Inhibition (%) of mycelial growth ([8]; isolate Phytophthora erythroseptica Rooster Eire, 25 μM in agar): 11%
- Inhibition (%) of mycelial growth ([8]; isolate Phytophthora erythroseptica Rooster Eire, 250 μM in agar): 91%
- Inhibition (%) of mycelial growth (F. coeruleum [12]; isolate F. coeruleum ex B7/06 T8, 25 μM in agar): 99%
- Inhibition (%) of mycelial growth (F. coeruleum [12]; isolate F. coeruleum ex B7/06 T8, 250 μM in agar): 99%
- Inhibition (%) of mycelial growth (F. coeruleum [12]; isolate F. coeruleum ex B16/08 P31, 25 μM in agar): 100%
- Inhibition (%) of mycelial growth (F. coeruleum [12]; isolate F. coeruleum ex B16/08 P31, 250 μM in agar): 100%
- Inhibition (%) of mycelial growth (F. culmorum [13]; 25 μM in agar): 100%
- Inhibition (%) of mycelial growth (F. culmorum [13]; 250 μM in agar): 100%
- Inhibition (%) of mycelial growth (Phoma exigua [14]; 25 μM in agar): 94%
- Inhibition (%) of mycelial growth (Phoma exigua [14]; 250 μM in agar): 99%
- Inhibition (%) of mycelial growth (F. sambucinum [15]; isolate F. sambucinum L'gall 11, 25 μM in agar): 19%
- Inhibition (%) of mycelial growth (F. sambucinum [15]; isolate F. sambucinum L'gall 11, 250 μM in agar): 83%
- Inhibition (%) of mycelial growth (F. sambucinum [15]; isolate F. sambucinum L'gall 53, 25 μM in agar): 11%
- Inhibition (%) of mycelial growth (F. sambucinum [15]; isolate F. sambucinum L'gall 53, 250 μM in agar): 68%
- Inhibition (%) of mycelial growth (F. sambucinum [15]; isolate F. sambucinum ex SASA, 25 μM in agar): 19%
- Inhibition (%) of mycelial growth (F. sambucinum [15]; isolate F. sambucinum ex SASA, 250 μM in agar, vs 1% ethanol control): 96%
- Inhibition (%) of mycelial growth (Phoma foveata [16]; 25 μM in agar): 95%
- Inhibition (%) of mycelial growth (Phoma foveata [16]; 250 μM in agar): 99%
